Tested on: Glycine max
Assay: Activity of soybean recombinant SMT1

Work on `CC(C)=CCC[C@@H](C)[C@H]1CC[C@@]2(C)[C@@H]3CC[C@H]4C(C)(C)[C@@H](O)CC[C@@]45C[C@@]35CC[C@]12C` yielded a Km of 30 µM and a kcat of 0.01 s⁻¹.

— ChEMBL document CHEMBL1140774, “Sterol C24-methyltransferase: mechanistic studies of the C-methylation reaction with 24-fluorocycloartenol” (Bioorg Med Chem Lett, 2008)
